Structures are written as SMILES. Where “and” joins values, the source holds several entries; their conditions need not be identical. Equal entries are not always repeated.

The subject of this test is P. falciparum 3D7 growth, pLDH absorbance. In words: blood-stage malaria parasite growth potency – strain 3D7, dose response (AID 2305).
The term IC50 denotes the concentration needed to halve the response being measured. A high value points to a need for much substance. The compound `OC1(c2ccc(Cl)c(C(F)(F)F)c2)CCN(CCOC2c3ccccc3CSc3ccc(Cl)cc32)CC1` (stereo not drawn) registered a 50% inhibitory concentration (IC50) of 800 nM.
`Cc1[nH]c(C)c(-c2ccc(-c3ccc4c(c3)OCO4)nc2)c(=O)c1Br`: the IC50 turned out to be 190 nM. Compared with the last compound, the IC50 is about 4.2-fold lower.
In the case of `COc1cccc(-c2csc(C(=O)NCC3CCN(Cc4ccc(C(C)C)cc4)C3)c2)c1` (stereo not drawn) it was 1390 nM; in that of `COc1ccc2nccc([C@@H](O)CN3CCC(NC(=O)/C=C/c4cccc(NC(C)=O)c4)CC3)c2c1`, 960 nM.
To `NC(=O)C1CCN(Cc2ccc(-c3ccc(-c4nc5ccc(F)cc5[nH]4)cc3)cc2)CC1` belongs 810 nM; to `O=S(=O)(NCCN1CCCC1)c1ccc(-c2ccc(CNCc3ccc(F)cc3)cc2)cc1F`, 1280 nM.
Take `CCc1cn2c3c(cc(C(=O)N[C@@H](Cc4ccccc4)[C@H](O)CNC4CCCC4)cc13)N(C)S(=O)(=O)CC2`: the IC50 stood at 50 nM.
In the case of `CC(C)CNCc1cccc(-c2cccc(CN(CCCN3CCN(C)CC3)C(=O)Nc3ccccc3)c2)c1` it was 1150 nM; in that of `Cc1cccc(CNc2nc(C)cc(N[C@@H](Cc3ccccc3)C(=O)NCCc3ccccc3)n2)c1`, 670 nM.
In the case of `O=C(Nc1ccc2ccccc2c1)N(CCCn1ccnc1)Cc1csc(-c2ccc(CNCc3ccccc3)cc2)n1` it was 740 nM.
In the case of `COc1ccc(-c2nc3c4cc(I)ccc4c4ccccc4c3[nH]2)cc1` it was 1100 nM.
On to `O=C(Nc1cccc(CN2CCCN(Cc3ccc(O)cc3)CC2)c1)c1ccc(Cl)c(Cl)c1`, for which the 50% inhibitory concentration (IC50) was determined as 260 nM.
To `Cc1nc(N)nc(N)c1-c1ccc(Br)c([N+](=O)[O-])c1` belongs 200 nM; to `COc1ccc(CCNCc2ccc3nc(N)c(C)cc3c2)cc1`, 990 nM.
`CCc1ccc(O)c(-c2cc(C(=O)Nc3cccnc3)[nH]n2)c1` displayed an IC50 of 690 nM.
In the case of `Oc1ccc(CCNc2nc(NCCCOc3ccccc3-c3ccc(F)cc3)nc(N3CCNCC3)n2)cc1` it was 1080 nM; in that of `CC(C)(C)c1ccccc1OC(=O)c1ccccc1`, 740 nM.
In the case of `COc1cccc(C(=O)NCc2cccs2)c1Oc1ccccc1` it was 60 nM.
In the case of `CN1CCN(Cc2c(O)ccc3c(=O)c(Oc4ccc(C(C)(C)C)cc4)c(C(F)(F)F)oc23)CC1` it was 810 nM.
The compound `COc1ccc(-c2nc3cccnc3n2CC(=O)Nc2c(C)cc(C)cc2C)c(OC)c1` registered an IC50 of 930 nM.
In turn, `Cc1cc(CNCCCCCNCc2ccc(Cl)cc2)ccc1O` returned a 50% inhibitory concentration (IC50) of 710 nM.
To `CCN1CCC(NCc2ccc(-c3ccc(Cl)s3)cc2)CC1` belongs 940 nM; to `Cc1ccc(O)cc1Nc1ccnc2cc(-c3ccc(CN4CCCCC4)o3)ccc12`, 170 nM.
To `NC1=NC(c2ccccc2)(c2cccc(O)c2)C(=O)N1CCCc1ccccc1` (stereo not drawn) belongs 1230 nM and 840 nM; to `CC(NC(=O)c1cc(-c2ccccc2)nc2c1cnn2C(C)C)C1CC1` (stereo not drawn), 1280 nM.
To `Cc1cccc2[nH]c(-c3cccc(-c4cccc(NC(=O)N[C@@H]5C[C@H]5c5ccccc5)c4)c3)nc12` belongs 710 nM.
The compound `COc1cc(C(=O)Nc2ccc(-c3nc4ccccc4[nH]3)cc2)cc(OC)c1OC` returned an IC50 of 980 nM.
To `O=C(/C=C/c1ccc(C(F)(F)F)cc1)NCCCCCN1CCCN(C(=O)Nc2ccc(Cl)cc2)CC1` belongs 870 nM; to `FC(F)c1nc2ccccc2n1-c1nc(N2CCOCC2)nc(N2CCOCC2)n1`, 760 nM.
The compound `Cc1[nH]c2ccccc2c1C(=O)CSc1nn(-c2ccccc2)c(=S)s1` had an IC50 of 700 nM.
In the case of `S=C(NN=Cc1ccccn1)Nc1ccc2c(c1)OCCO2` it was 1050 nM.
In the case of `CCCCCN1C(=O)N(c2ccc(Cl)c(Cl)c2)C(N(O)C(=O)Nc2ccc(Cl)c(Cl)c2)C1(C)C` (stereo not drawn) it was 550 nM; in that of `COc1cccc2cc(C(=O)N[C@@H](CC(C)C)C(=O)N[C@H](/C=N/N3CC(=O)NC3=O)CC(C)C)oc12`, 920 nM.
To `CC(C)NCc1cccc(-c2ccc(NS(=O)(=O)c3cccc4cccnc34)cc2)c1` belongs 1080 nM.
`Nc1nc(N)c2c(Cc3ccccc3)cccc2n1` displayed an IC50 of 830 nM. The IC50 values of the last two compounds are within 1.5-fold of each other.
To `CCN(CC)CCN(Cc1ccc(-c2ccc(C(F)(F)F)cc2)cc1)C(=O)Cn1c(CCc2cccc(F)c2F)nc(=O)c2ccc(F)cc21` belongs 360 nM; to `C[C@H]1CN(Cc2cccc(-c3cc(CNC(=O)c4cccc(CN5CCN(CCOc6ccccc6)CC5)c4)ccc3F)c2)CCN1`, 1110 nM; to `CSc1nc2cc3c(cc2n1C(=O)c1ccc(C)cc1)OCCO3`, 170 nM.
Take `CCc1ccccc1N1CCN(CCCC(=O)c2ccc(NC(=O)c3cc(Cl)cc(Cl)c3)cc2)CC1`: the concentration for half-maximal inhibition (IC50) was 290 nM.
The compound `CCN=C1NC2=C(CC(C(C)(C)C)CC2)C2(CCC(C(C)(C)C)CC2)S1` (stereo not drawn) displayed an IC50 of 830 nM.
In the case of `CC(CN(C)C)C(=O)Nc1cccc(-c2ccc(-c3nc4ccccc4[nH]3)cc2)c1` (stereo not drawn) it was 710 nM; in that of `Cc1cccc(NC(c2cccs2)c2c(NC(=O)c3ccccc3)sc(C)c2C)n1` (stereo not drawn), 830 nM; in that of `CCCCNS(=O)(=O)c1ccc(NC(=O)c2cc([N+](=O)[O-])ccc2Cl)cc1`, 900 nM.
To `O=[N+]([O-])c1cc(/C=N/Nc2nc3ccccc3[nH]2)ccc1O` belongs 950 nM; to `COc1cc2ccccc2c(CNCCCCCCNCc2c(OC)c(OC)cc3ccccc23)c1OC`, 1110 nM.
To `O=C(NCc1cccc(C(F)(F)F)c1)C(c1cc2ccccc2o1)N1CCN(C(c2ccccc2)c2ccccc2)CC1` (stereo not drawn) belongs 500 nM; to `CC1(C)N=C(N)NC(Nc2ccc(F)c(F)c2)=N1`, 50 nM; to `CCN1CCC(N(Cc2ccc(-c3ccc(C(F)(F)F)cc3)cc2)C(=O)Cn2c(SCc3ccc(F)cc3)nc(=O)c3c2CCC3)CC1`, 990 nM.
`COc1cccc2c(NN=Cc3ccc([N+](=O)[O-])cc3)ccnc12` displayed an IC50 of 890 nM. This IC50 and that of the compound before are within 1.5-fold of each other.
To `CC(C)CCN=C(N)Nc1ccc(OCCCOc2ccc(NC(N)=NCCC(C)C)cc2)cc1` belongs 200 nM; to `OCCOCn1cnc2cnc(N[C@H]3OC[C@H](O)[C@@H](O)[C@@H]3O)nc21`, 1640 nM; to `O=C1C2=C(Nc3ccccc3SC2c2cccs2)c2ccccc21` (stereo not drawn), 230 nM.
To `CN(N=Cc1ccccc1)C(N)=NCCCC#Cc1cccc(CN2CCCC2)c1` belongs 1790 nM; to `COc1ccc(Br)cc1C1[C@@H]2C(=O)N(c3ccc(Br)cc3)C(=O)[C@@H]2C2(C(=O)O)CC(OCc3ccccc3)CN12` (stereo partly drawn), 190 nM; to `CN(C)c1cc(NC(=O)Nc2ccc(SC(F)(F)F)cc2)c2ccccc2n1`, 140 nM.
In the case of `O=C(/C=C/c1ccc(Cl)c(Cl)c1)N1CCC(CCN2CCC(c3c[nH]c4ccccc34)CC2)CC1` it was 600 nM; in that of `Nc1ncc(-c2ccc3[nH]ccc3c2)c2ccc(-c3ccncc3)cc12`, 540 nM.
Take `NC(=O)c1cccc(CN2Cc3ccccc3OC3(CCN(Cc4c[nH]c5cnccc45)CC3)C2)c1`: the IC50 came to 1060 nM. This IC50 is about 2-fold higher than that of the compound before.
In the case of `COc1ccc2nccc([C@@H](O)CN3CCC(NCc4ccc5c(n4)NCCC5)CC3)c2c1` it was 740 nM; in that of `O=C(/C=C/c1ccc(Cl)c(Cl)c1)N1CCN(C(=O)Nc2ccc(C(F)(F)F)cc2)CC1`, 670 nM.
To `CCCCN(CCCC)Cc1cc2ccccc2cc1O` belongs 350 nM; to `CN(C)CCNCc1ccc(-c2ccc(-c3nc4ccccc4[nH]3)s2)cc1`, 570 nM; to `CCc1ccc(N2C(N)=NC(N)=NC2(C)C)cc1`, 10 nM.

The record behind these values is PubChem BioAssay AID2305 (GlaxoSmithKline (GSK), 2010).
